Experimental data taken from patent US20220409727A1, “Metal Complexes Bearing Bisstyryl-Bipyridine Ligand and Their Use as Photosensitizer Agent in One and Two-Photon Photodynamic Therapy” (Paris Sciences et Lettres, priority 2019, published 2022).
Like-named read-outs stand apart in the source and are kept apart here.

How the values were obtained:
[1] = Emission measurement in CH3CN; assay type: physicochemical; conditions: room temperature, excitation at 355 nm
Method: The absorption of the samples was measured with a SpectraMax M2 Spectrometer (Molecular Devices). The emission was measured by irradiation of the sample in fluorescence quartz cuvettes (width 1 cm) using a NT342B Nd-YAG pumped optical parametric oscillator (Ekspla) at 355 nm. Luminescence was focused and collected at right angle to the excitation pathway and directed to a Princeton Instruments Acton SP-2300i monochromator. As a detector, a XPI-Max 4 CCD camera (Princeton Instruments) has been used.

[2] = Luminescence lifetime measurements; assay type: physicochemical; conditions: excitation at 355 nm; for τ/ns air (Lifetime): air saturated CH3CN; for τ/ns degassed (Lifetime): degassed CH3CN
Method: For the determination of the lifetimes, the samples were prepared in an air saturated and in a degassed CH3CN solution with an absorbance of 0.2 at 355 nm. This solution was irradiated in fluorescence quartz cuvettes (width 1 cm) using a NT342B Nd-YAG pumped optical parametric oscillator (Ekspla) at 355 nm. The emission signal was focused and collected at right angle to the excitation pathway and directed to a Princeton Instruments Acton SP-2300i monochromator. As a detector a R928 photomultiplier tube (Hamamatsu) has been used.

[3] = Singlet oxygen measurement, indirect evaluation (RNO absorbance); assay type: physicochemical
Method: For the measurement in CH3CN: The samples were prepared in an air-saturated CH3CN solution containing the complex with an absorbance of 0.2 at the irradiation wavelength, N,N-dimethyl-4-nitrosoaniline aniline (RNO, 24 μM) and imidazole (12 mM). For the measurement in PBS buffer: The samples were prepared in an air-saturated PBS solution containing the complex with an absorbance of 0.1 at the irradiation wavelength, N,N-dimethyl-4-nitrosoaniline aniline (RNO, 20 μM) and histidine (10 mM). The samples were irradiated on 96 well plates with an Atlas Photonics LUMOS BIO irradiator for different times. The absorbance of the samples was measured during these time intervals with a SpectraMax M2 Microplate Reader (Molecular Devices). The difference in absorbance (A0−A) at 420 nm for the CH3CN solution or at 440 nm a PBS buffer solution was calculated and plotted against the irradiation times. From the plot the slope of the linear regression was calculated as well as the absorbance correction factor determined. The singlet oxygen quantum yields were calculated using the same formulas as used for the direct evaluation.

[4] = tested on: human cervical carcinoma (HeLa) cells; experiment: (Photo-)cytotoxicity on 2D cell monolayers, resazurin assay, HeLa; assay type: cell-based; conditions: for PI (480 nm): dark vs 480 nm (10 min, 3.1 J/cm^2); for PI (540 nm): dark vs 540 nm (40 min, 9.5 J/cm^2)
Source text: Before an experiment, the cells were passaged three times.

HeLa MCTS = experiment: (Photo-)cytotoxicity on 3D multicellular tumor spheroids (ATP, CellTiter-Glo 3D); assay type: cell-based, human; conditions: for PI (1-Photon): dark vs 1-Photon irradiation (500 nm, 10 J/cm^2); for PI (2-Photon): dark vs 2-Photon irradiation (800 nm, 10 J/cm^2); for phototoxicity in HeLa MCTS: 1 Photon and 2 Photons irradiation, compared with compounds 4-6, 8, 10
Method: autoclave. The hot emulsion was transferred into wells (50 μL per well) of a 96 cell culture well plate. The plates were exposed for 3 h to UV irradiation to ensure the sterility and allow the agarose solution to cool down. After this time, the agarose was overlayed with a HeLa cell suspension at a density of 3000 cells per well in 150 μL of media. The MCTS were cultivated and maintained at 37° C. in a cell culture incubator at 37° C. with 5% CO2 atmosphere. The culture media was replaced every two days. Within two-three days MCTs were formed from the cell suspension. The formation as well as integrity, diameter and volume of the MCTs was monitored by an Axio Observer Z1 (Carl Zeiss) phase contrast microscope. The volume was calculated using the following formula: V=4/3πr^3. The luminescence images along the z-axis were captured by a one-(λex=458 nm, λem=600-750 nm) or two-photon (λex=800 nm, λem=600-750 nm) excitation in the z-stack mode with a an LSM 880 (Carl Zeiss) laser scanning confocal microscope equipped with Argon and a Coherent Chameleon 2-Photon laser and a GaAsP detector.
The cytotoxicity of the compounds in 3D multicellular tumor spheroids (MCTS) was assessed by measurement of the ATP concentration. MCTS were treated with increasing concentrations of the compound (2% DMSO, v %) by replacing 50% of the media with drug supplemented media and incubation for 12 h. After this time, the MCTS were divided in three identical groups. The first group was strictly kept in the dark. The second group was exposed to a one-photon irradiation (500 nm, 10 J/cm^2) using a LED and the third group was exposed to a two-photon irradiation (800 nm, 10 J/cm^2) with a section interval of 5 μm using a LSM 880 (Carl Zeiss, Germany) laser scanning confocal microscope equipped with a Coherent Chameleon 2-Photon laser. After the irradiation, all groups were incubated additional 48 h. The ATP concertation was measured using a CellTiter-Glo 3D Cell Viability kit (Promega) by measuring the generated chemiluminescence with an infinite M200 PRO (Tecan) plate reader.

[5] = tested on: mouse colon carcinoma (CT-26) cells
Method: (§1) The human glioblastoma astrocytoma (U373) cell line was cultured in MEM medium supplemented with 10% FBS, 1% NEAA (non-essential amino-acids) and 1% penicillin/streptomycin. […] The human retinal epithelial cells (RPE-1, non-cancerous cells immortalized with hTERT) were cultured in DMEM-F12 medium supplemented with 10% FBS and 1% penicillin/streptomycin. All cell lines were obtained from the American Type Culture Collection (ATCC) and cultured at 37° C. and 5% CO2. Before an experiment, the cells were passaged three times.
(§2) The cytotoxicity of the compounds was assessed by measuring cell viability using a fluorometric resazurin assay. The cultivated cells were seeded in triplicates in 96 well plates with a density of 4000 cells per well in 100 μL of media. After 24 h, the medium was removed and the cells were treated with increasing concentrations of the compound diluted in cell media achieving a total volume of 200 μL. The cells were incubated with the compound for 4 h. After this time, the media was removed and replaced with 200 μL of fresh medium. For the phototoxicity studies, the cells were exposed to light with an Atlas Photonics LUMOS BIO irradiator. Each well was constantly illuminated with either a 480 nm or 540 nm irradiation. During this time, the temperature was maintained constantly at 37° C. The cells were grown in the incubator for additional 44 h. For the determination of the dark cytotoxicity, the cells were not irradiated and after the medium exchange directly incubated for 44 h. After this time, the medium was replaced with fresh medium containing resazurin with a final concentration of 0.2 mg/mL. After 4 h incubation, the amount of the fluorescent product resorufin was determined upon excitation at 540 nm and measurement its emission at 590 nm using a SpectraMax M2 Microplate Reader (Molecular Devices).
(§3) The obtained data was analyzed with the GraphPad Prism software.

[6] = tested on: human glioblastoma astrocytoma (U373) cells
Method: as §1, §2, §3

[7] = tested on: non-cancerous retinal pigment epithelium (RPE-1) cells; experiment: (Photo-)cytotoxicity on 2D cell monolayers, resazurin assay, RPE-1; conditions: for PI (480 nm): RPE-1, dark vs 480 nm (10 min, 3.1 J/cm^2); for PI (540 nm): RPE-1, dark vs 540 nm (40 min, 9.5 J/cm^2);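 on all read-outs here: cells exposed to compound 4 h, medium exchanged, then irradiated or kept dark, 44 h further growth, viability by resorufin fluorescence (ex 540 nm, em 590 nm)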
[8] = tested on: mouse colon carcinoma (CT-26) cells; experiment: (Photo-)cytotoxicity on 2D cell monolayers, resazurin assay, CT-26; conditions: for PI (480 nm): CT-26, dark vs 480 nm (10 min, 3.1 J/cm^2); for PI (540 nm): CT-26, dark vs 540 nm (40 min, 9.5 J/cm^2); for IC50: compounds 1-3 as chloride salts
Method: as §1, §2, §3

[9] = dark, 4 h incubation, compounds 1-3 as chloride salts, read-out: IC50 dark
[10] = read-out: IC50 480 nm (10 min, 3.1 J/cm^2), irradiation 480 nm (10 min, 3.1 J/cm^2), compounds 1-3 as chloride salts
[11] = read-out: IC50 540 nm (40 min, 9.5 J/cm^2), irradiation 540 nm (40 min, 9.5 J/cm^2), compounds 1-3 as chloride salts
[12] = 1-Photon irradiation (500 nm, 10 J/cm^2), read-out: IC50 1-Photon irradiation (500 nm, 10 J/cm^2)
[13] = 2-Photon irradiation (800 nm, 10 J/cm^2, section interval of 5 μm), read-out: IC50 2-Photon irradiation (800 nm, 10 J/cm^2)
[14] = dark, 12 h incubation, read-out: IC50 dark
[15] = read-out: IC50 540 nm (40 min, 9.5 J/cm^2), CT-26, irradiation 540 nm (40 min, 9.5 J/cm^2)
[16] = read-out: IC50 dark, CT-26, dark, 4 h incubation

For `CN(C)c1ccc(/C=C/c2ccnc(-c3cc(/C=C/c4ccc(N(C)C)cc4)ccn3)c2)cc1.F[P-](F)(F)(F)(F)F.F[P-](F)(F)(F)(F)F.[Ru+2].c1ccc(-c2ccccn2)nc1.c1ccc(-c2ccccn2)nc1` [Compound 6, [Ru(bipy)2((E,E′)-4,4′-Bis[p-(N,N-dimethylamino)styryl]-2,2′-bipyridine)][PF6]2], the “λem/nm (Emission maximum)” value [1] was 697 nm, the “τ/ns air (Lifetime)” value [2] was 54 ns and the “τ/ns degassed (Lifetime)” value [2] was 405 ns. For the same compound, the “Singlet oxygen quantum yield, indirect 450 nm CH3CN” value ([3]; CH3CN) was 53%, the “Singlet oxygen quantum yield, indirect 450 nm PBS” value [3] was 2% and the “Singlet oxygen quantum yield, indirect 540 nm CH3CN” value ([3]; CH3CN) was 38%. The “Singlet oxygen quantum yield, indirect 540 nm PBS” value [3] was 2%, the “PI (480 nm)” value [4] was >18.9 and the “PI (540 nm)” value [4] was >17.2. For the same compound, the IC50 [4, 9] was > 100 µM, the IC50 [4, 10] was 5.3 ± 0.6 µM and the IC50 [4, 11] was 5.8 ± 0.9 µM. For the same compound, the IC50 (HeLa MCTS; [12]) was 33.8 ± 3.4 µM, the IC50 (HeLa MCTS; [13]) was 26.5 ± 2.9 µM and the “PI (1-Photon)” value (HeLa MCTS) was >8.9. For the same compound, the “PI (2-Photon)” value (HeLa MCTS) was >11.3, the IC50 (HeLa MCTS; [14]) was > 300 µM and the IC50 [5] was 2.4 ± 0.5 µM. The IC50 [6] was 10.7 ± 1.9 µM, the “PI (480 nm)” value [7] was >13.7 and the “PI (540 nm)” value [7] was >12.3. For the same compound, the “PI (480 nm)” value [8] was >41.7, the “PI (540 nm)” value [8] was >32.3 and the IC50 [8, 15] was 3.1 ± 0.3 µM. The IC50 [8, 16] was > 100 µM.
With `COc1ccc(C=Cc2ccnc(-c3cc(C=Cc4ccc(OC)cc4)ccn3)c2)cc1.F[P-](F)(F)(F)(F)F.F[P-](F)(F)(F)(F)F.[Ru+2].c1ccc(-c2ccnc3c2ccc2c(-c4ccccc4)ccnc23)cc1.c1ccc(-c2ccnc3c2ccc2c(-c4ccccc4)ccnc23)cc1` [Compound 11, [Ru(4,7-Diphenyl-1,10-phenanthroline)2((E,E′)-4,4′-Bis[p-methoxystyryl]-2,2′-bipyridine)][PF6]2] the “λem/nm (Emission maximum)” value [1] was 663 nm, the “τ/ns air (Lifetime)” value [2] was 108 ns and the “τ/ns degassed (Lifetime)” value [2] was 679 ns. For the same compound, the “Singlet oxygen quantum yield, indirect 450 nm CH3CN” value ([3]; CH3CN) was 73%, the “Singlet oxygen quantum yield, indirect 450 nm PBS” value [3] was 7% and the “Singlet oxygen quantum yield, indirect 540 nm CH3CN” value ([3]; CH3CN) was 72%. For the same compound, the “Singlet oxygen quantum yield, indirect 540 nm PBS” value [3] was 5%, the “PI (480 nm)” value [4] was 27.5 and the “PI (540 nm)” value [4] was 23.6. The IC50 [4, 9] was 16.5 ± 0.8 µM, the IC50 [4, 10] was 0.6 ± 0.3 µM and the IC50 [4, 11] was 0.7 ± 0.5 µM. For the same compound, the IC50 (HeLa MCTS; [12]) was 3.8 ± 0.4 µM, the “phototoxicity in HeLa MCTS” value (HeLa MCTS) was “much higher phototoxicity” and the IC50 (HeLa MCTS; [13]) was 0.8 ± 0.5 µM. For the same compound, the “PI (1-Photon)” value (HeLa MCTS) was 7.7, the “PI (2-Photon)” value (HeLa MCTS) was 36.6 and the IC50 (HeLa MCTS; [14]) was 29.3 ± 2.9 µM. For the same compound, the IC50 [5] was 0.5 ± 0.2 µM, the IC50 [6] was 0.7 ± 0.3 µM and the “PI (480 nm)” value [7] was 23.1. The “PI (540 nm)” value [7] was 29.7, the “PI (480 nm)” value [8] was 17.2 and the “PI (540 nm)” value [8] was 14.3. It also gave an IC50 [8, 15] of 0.6 ± 0.2 µM and an IC50 [8, 16] of 8.6 ± 0.9 µM.
For “[Ru(bipy)2((E,E′)-4,4′-Bis[p-(N,N-methoxy)styryl]-2,2′-bipyridine)][PF6]2 [Compound 7]”, the “λem/nm (Emission maximum)” value [1] was 664 nm, the “τ/ns degassed (Lifetime)” value [2] was 542 ns and the “singlet oxygen quantum yields in CH3CN” value ([3]; CH3CN, range over direct and indirect methods, 450 and 540 nm) was 68-77%. For the same compound, the “singlet oxygen quantum yields in an aqueous solution” value ([3]; aqueous solution (PBS), range over 450 and 540 nm) was 10-11%, the “Singlet oxygen quantum yield, indirect 450 nm CH3CN” value ([3]; CH3CN) was 77% and the “Singlet oxygen quantum yield, indirect 450 nm PBS” value [3] was 11%. The “Singlet oxygen quantum yield, indirect 540 nm CH3CN” value ([3]; CH3CN) was 68%, the “Singlet oxygen quantum yield, indirect 540 nm PBS” value [3] was 10% and the “PI (480 nm)” value [4] was >83.3. The “PI (540 nm)” value [4] was >66.7, the IC50 [4, 9] was > 100 µM and the IC50 [4, 10] was 1.2 ± 0.4 µM. The IC50 [4, 11] was 1.5 ± 0.5 µM, the IC50 (HeLa MCTS; [12]) was 6.8 ± 0.2 µM and the “phototoxicity in HeLa MCTS” value (HeLa MCTS) was “much higher phototoxicity”. For the same compound, the IC50 (HeLa MCTS; [13]) was 1.4 ± 0.2 µM, the “PI (1-Photon)” value (HeLa MCTS) was >44.1 and the “PI (2-Photon)” value (HeLa MCTS) was >214.3. The IC50 (HeLa MCTS; [14]) was > 300 µM, the IC50 [5] was 0.7 ± 0.4 µM and the IC50 [6] was 13.5 ± 1.6 µM. The “PI (480 nm)” value [7] was >32.3, the “PI (540 nm)” value [7] was >11.9 and the “PI (480 nm)” value [8] was >142.9. For the same compound, the “PI (540 nm)” value [8] was >111.1, the IC50 [8, 15] was 0.9 ± 0.3 µM and the IC50 [8, 16] was > 100 µM.
